Activity calls are given as the source filed them. The calls are words filed in the database; no cut-off is given here.
Tests used:
Type in all cases: functional
[1] = test system: Radical scavenging activity; assay: Antioxidant activity assessed as DPPH radical scavenging activity at 300 uM after 48 hrs by spectrophotometry
[2] = Antioxidant activity assessed as oxygen radical scavenging activity by ORAC assay
[3] = Antioxidant activity assessed as ABTS radical scavenging activity

Row | SMILES | Activity [1] | Activity [2] | Activity [3]
1 | OCCc1ccc(O)cc1 | 26% | Active | 
2 | Cc1cc(C(C)(C)C)c(O)c(C(C)(C)C)c1 | 86% |  | 
3 | OCCc1c[nH]c2ccccc12 | 52% |  | Active
4 | O=C(CCCCO)OCCc1c[nH]c2ccccc12 | 47% |  | 
5 | CC(O)C(=O)OCCc1c[nH]c2ccccc12 (stereo not drawn) | 33% |  | 
6 | O=C1N[C@@H](Cc2ccc(O)cc2)C(=O)N2CCC[C@@H]12 | 16% |  | 
